Results on ten molecules are retold here after patent publication US9714249B2 (Novartis AG, priority 2013, dated 2017).

The target in assay [1] is BRD3 (His-Brd3(20-477)) (Homo sapiens (Human), UniProt Q15059). The assay can be described thus: TR-FRET in-vitro binding assay for BRD3. The note with it: acetyl-histone H4 peptide. The protocol:
All assays were performed in 384 well microtiter plates. Each assay plate contained 8-point serial dilutions for 40 test compounds, plus 16 high- and 16 low controls. Liquid handling and incubation steps were done on an Innovadyne Nanodrop Express equipped with a robotic arm (Thermo CatX, Perkin Elmer/Caliper Twister II) and an incubator (Liconic STX40, Thermo Cytomat 2C450). The assay plates were prepared by addition of 50 nl per well of compound solution in 90% DMSO HummingBird nanodispenser (Zinsser Analytic). The assay was started by stepwise addition of 4.5 μl per well of bromo domain protein (50 mM HEPES, pH 7.5, 0.005% Tween20, 0.1% BSA, 50 mM NaCl, 45 nM His-Brd2(60-472) or 45 nM His-Brd3(20-477) or 45 nM His-Brd4(44-477) all proteins produced in-house) and 4.5 μl per well of peptide solution (50 mM HEPES, pH 7.5, 0.005% Tween20, 0.1% BSA, 50 mM NaCl, 60 nM acetyl-histone H4 (AcK 5, 8, 12, 16) (Biosyntan GmbH)). Reactions were incubated at 30° C. for 35 minutes. Subsequently 4.5 μl per well detection mix (50 mM HEPES, pH 7.5, 0.005% Tween20, 0.1% BSA, 50 mM NaCl, 3 nM Eu-labeled anti-His6 antibody, 21 nM streptavidin-allophycocyanin) were added. After 35 minutes incubation at 30° C., plates were measured in a Perkin Elmer EnVision multilabel reader. Concentrations causing 50% inhibition (1050) values were determined from percent inhibition values at different compound concentrations by non-linear regression analysis.
Test compounds were dissolved in DMSO (10 mM) and transferred into 1.4 mL flat bottom or V-shaped Matrix tubes carrying a unique 2D matrix. The stock solutions were stored at […] if not used immediately. For the test procedure the vials were defrosted and identified by a scanner whereby a working sheet was generated that guided the subsequent working steps. Compound dilutions were made in 96 well plates. This format enabled the assay of maximally 40 individual test compounds at 8 concentrations (single points) including 4 reference compounds, if desired (known BET inhibitors from the prior art, for this and other assays of the type disclosed herein). The dilution protocol included the production of “pre-dilution plates”, “master plates” and “assay plates”.
Pre-dilution plates: 96 polypropylene well plates were used as pre-dilution plates. A total of 4 pre-dilution plates were prepared including 10 test compounds each on the plate positions A1-A10, one standard compound at A11 and one DMSO control at A12. All dilution steps were done on a HamiltonSTAR robot. Master plates: 30 μL of individual compound dilutions including standard compound and controls of the 4 “pre-dilution plates” were transferred into a 384 “master plate” including the following concentrations 10000, 3003, 1000, 300, 100, 30, 10 and 3 μM, respectively in 90% of DMSO. Assay plates: Identical “assay plates” were then prepared by pipetting 50 nL each of compound dilutions of the “master plates” into 384-well “assay plates” by means of a HummingBird 384-channel dispenser. These plates were used directly for the assay which was performed in a total volume of 13.55 μL. This led to a final compound concentration of 37, 11, 3.7, 1.1, 0.37, 0.11, 0.037 and 0.011 μM and a final DMSO concentration of 0.37% in the assay. Cell Growth Inhibition Assay
On the technique in general: In TR-FRET formats the signal depends on donor and acceptor labels being close together.

In assay [2] the test system is MV-4-11 cells. The assay can be described thus: Cell growth inhibition assay (CellTiter-Glo), MV-4-11. Format: cell-based, human. The note with it: MV-4-11, 4 days; for GI50: Homo sapiens, MV4-11, 96 h, half-maximal growth inhibition; for MV-4-11 TGI: total growth inhibition. The protocol:
(§1) The human leukemia cell lines MV-4-11, THP-1 and K-562 were employed to characterize the effect of BET inhibitors on cellular proliferation and viability. Cells were obtained from the American Type Culture Collection (ATCC) and cultured at 37° C. in a humidified 5% CO2 incubator in the following media: MV-4-11: DMEM high glucose (Animed #1-26F01-I), 10% FCS (Animed #2-01F26-I), 4 mM L-Glutamine (Animed #5-10K50), 1 mM Sodium Pyruvate (Animed # G03625P), 1× Penicillin-Streptomycin (Animed # F12478P); K-562: Iscove's MEM (Animed #1-28F16-I), 10% FCS (Animed #2-01F26-I), 4 mM L-Glutamine (Animed #5-10K50), 1× Penicillin-Streptomycin (Animed # F12478P); THP-1: RPMI-1640 (Animed #1-41F01-I), 10% FCS (Animed #2-01F26-I), 2 mM L-Glutamine (Animed #5-10K50), 10 mM HEPES (Animed #5-31F100), 1 mM Sodium Pyruvate (Animed # G03625P), 1× Penicillin-Streptomycin (Animed # F12478P). The AML lines MV-4-11 and THP-1 are very sensitive to BET inhibitors and show massive cell death upon BET inhibition (Zuber et al., Nature, 478 (2011), 524-8). Compound-mediated suppression of cell proliferation/viability was assessed by quantification of cellular ATP levels using the CellTiter-Glo (CTG) reagent (Promega). Briefly, cells were seeded in 20 μl fresh medium into 384-well plates, followed by addition of 5 μl medium containing compound dilutions at 5-fold their final intended concentration. Dose-response effects were assessed by 3-fold serial dilutions of the test compound, starting at 10 μM. Following incubation of the cells for 4 days at 37° C. and 5% CO2, the effect of inhibitors on cell viability was quantified following addition of 20 μl CTG and luminescence quantification (integration time: 100 ms) as per vendor manual, using a correspondingly equipped Tecan M200 multi-mode platereader (TECAN, Switzerland). For data analysis, the assay background value determined in wells containing medium, but no cells, was subtracted from all data points. To enable differentiation of cytotoxic from cytostatic compounds, the number of viable cells is assessed relative to that observed at the time of compound addition using a separate cell plate (day 0). The effect of a particular test compound concentration on cell proliferation/viability is expressed as percentage of the background- and day 0-corrected luminescence reading obtained for cells treated with vehicle only (DMSO, 0.1% final concentration), which is set as 100%, whereas that luminescence reading for wells containing medium is set as −100%. Compound concentrations leading to half-maximal (1050) and total growth inhibition (TGI) were determined using standard four parameter curve fitting.
On the technique in general: ATP-based viability assays read luminescence as a measure of living cells.

Assay [3] deals with THP-1 cells. The assay can be described thus: Cell growth inhibition assay (CellTiter-Glo), THP-1. It counts as cell-based, human. The note with it: THP-1, 4 days; for GI50: Homo sapiens, 96 h, half-maximal growth inhibition; for THP-1 TGI: total growth inhibition. The protocol:
as §1

pIC50: −log10 of the molar value.

Chain of BRD3 (His-Brd3(20-477)) (Q15059 20-477, species assumed): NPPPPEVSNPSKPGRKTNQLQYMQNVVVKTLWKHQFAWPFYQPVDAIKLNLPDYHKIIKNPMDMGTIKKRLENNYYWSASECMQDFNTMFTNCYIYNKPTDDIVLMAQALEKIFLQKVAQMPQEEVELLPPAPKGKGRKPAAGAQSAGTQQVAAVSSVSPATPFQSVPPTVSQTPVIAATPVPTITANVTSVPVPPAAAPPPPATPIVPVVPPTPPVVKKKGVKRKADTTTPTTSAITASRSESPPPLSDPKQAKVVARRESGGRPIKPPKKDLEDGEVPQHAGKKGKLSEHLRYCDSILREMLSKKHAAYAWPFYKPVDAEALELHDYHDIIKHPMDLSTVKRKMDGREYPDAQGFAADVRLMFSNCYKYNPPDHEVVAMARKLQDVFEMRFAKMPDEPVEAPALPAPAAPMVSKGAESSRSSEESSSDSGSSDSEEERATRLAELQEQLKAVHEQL

For the molecule `Cc1nn(C(C)C)c2c1C(=O)N(c1cc(C)c(=O)n(C)c1)C2c1ccc(Cl)cc1` (centres unmarked) [Example 12, 6-(4-chlorophenyl)-5-(1,5-dimethyl-6-oxo-1,6-dihydropyridin-3-yl)-1-isopropyl-3-methyl-5,6-dihydropyrrolo[3,4-c]pyrazol-4(1H)-one], the pIC50 in assay [1] is 7.34. In assay [2], it took 0.0191 µM to inhibit growth by half (GI50) and the “MV-4-11 TGI” value amounted to 0.0374 µM. Besides, in assay [3], the GI50 turned out to be 0.0622 µM and the “THP-1 TGI” value is 0.112 µM.
The molecule `COc1ccc(-n2nc(C)c3c2C(c2ccc(Cl)cc2)N(c2cc(C)c(=O)n(C)c2)C3=O)cc1` (centres unmarked) [Example 13, 6-(4-chlorophenyl)-5-(1,5-dimethyl-6-oxo-1,6-dihydropyridin-3-yl)-1-(4-methoxyphenyl)-3-methyl-5,6-dihydropyrrolo[3,4-c]pyrazol-4(1H)-one] showed a negative logarithm of the IC50 (pIC50) in assay [1] of 7.12. In assay [2], the GI50 came to 0.03 µM and the “MV-4-11 TGI” value is 0.0562 µM. For the same molecule, in assay [3], halving of growth (GI50) required 0.0698 µM and the “THP-1 TGI” value amounted to 0.119 µM.
In assay [1], `COc1ncc(-n2nc3c(c2C)C(=O)N(c2cc(C)c(=O)n(C)c2)C3c2ccc(Cl)cc2)c(OC)n1` (centres unmarked) [Example 14, 6-(4-chlorophenyl)-2-(2,4-dimethoxypyrimidin-5-yl)-5-(1,5-dimethyl-6-oxo-1,6-dihydropyridin-3-yl)-3-methyl-5,6-dihydropyrrolo[3,4-c]pyrazol-4(2H)-one] had a negative-log IC50 (pIC50) of 7.13. For the same molecule, in assay [2], the GI50 turned out to be 0.122 µM and the “MV-4-11 TGI” value stood at 0.203 µM. Further, in assay [3], the GI50 was 0.219 µM and the “THP-1 TGI” value was found to be 0.352 µM.
Molecule `COc1ncccc1-c1nn(C)c2c1C(=O)N(c1cc(C)c(=O)n(C)c1)C2c1ccc(Cl)cc1` (centres unmarked) [Example 15, 6-(4-chlorophenyl)-5-(1,5-dimethyl-6-oxo-1,6-dihydropyridin-3-yl)-3-(2-methoxypyridin-3-yl)-1-methyl-5,6-dihydropyrrolo[3,4-c]pyrazol-4(1H)-one] had a negative-log IC50 (pIC50) in assay [1] of 7.18. In assay [2], halving of growth (GI50) required 0.0546 µM and the “MV-4-11 TGI” value was 0.0924 µM. Besides, in assay [3], halving of growth (GI50) required 0.0678 µM and the “THP-1 TGI” value came to 0.143 µM.
The matching figures for `COc1ncccc1-c1nn(C)c2c1C(=O)N(c1cc(C)c(=O)n(C)c1)[C@@H]2c1ccc(Cl)cc1` [Example 16, (R)-6-(4-chlorophenyl)-5-(1,5-dimethyl-6-oxo-1,6-dihydropyridin-3-yl)-3-(2-methoxypyridin-3-yl)-1-methyl-5,6-dihydropyrrolo[3,4-c]pyrazol-4(1H)-one]: 7.28, 0.0236 µM, 0.0437 µM, 0.043 µM and 0.0922 µM.
`COc1ncccc1-n1nc2c(c1C)C(=O)N(c1cc(C)c(=O)n(C)c1)C2c1ccc(Cl)cc1` (centres unmarked) [Example 17b, 6-(4-chlorophenyl)-5-(1,5-dimethyl-6-oxo-1,6-dihydropyridin-3-yl)-2-(2-methoxypyridin-3-yl)-3-methyl-5,6-dihydropyrrolo[3,4-c]pyrazol-4(2H)-one] showed a pIC50 in assay [1] of 7.34. In assay [2], the GI50 is 0.027 µM and the “MV-4-11 TGI” value came to 0.0343 µM. Further, in assay [3], it took 0.0724 µM to inhibit growth by half (GI50) and the “THP-1 TGI” value amounted to 0.117 µM.
For `CCOc1ncccc1-n1nc2c(c1C)C(=O)N(c1cc(C)c(=O)n(C)c1)C2c1ccc(Cl)cc1` (centres unmarked) [Example 18b, 6-(4-chlorophenyl)-5-(1,5-dimethyl-6-oxo-1,6-dihydropyridin-3-yl)-2-(2-ethoxypyridin-3-yl)-3-methyl-5,6-dihydropyrrolo[3,4-c]pyrazol-4(2H)-one] the same measures were 7.41, 0.0169 µM, 0.0313 µM, 0.044 µM and 0.0931 µM.
The matching figures for `Cc1nn(-c2cccnc2F)c2c1C(=O)N(c1cc(C)c(=O)n(C)c1)C2c1ccc(Cl)cc1` (centres unmarked) [Example 19, 6-(4-chlorophenyl)-5-(1,5-dimethyl-6-oxo-1,6-dihydropyridin-3-yl)-1-(2-fluoropyridin-3-yl)-3-methyl-5,6-dihydropyrrolo[3,4-c]pyrazol-4(1H)-one]: 7.14, 0.0505 µM, 0.0798 µM, 0.091 µM and 0.164 µM.
In assay [1], `COc1ccc(-n2nc3c(c2C)C(=O)N(c2cc(C)c(=O)n(C)c2)C3c2ccc(Cl)cc2)cn1` (centres unmarked) [Example 20a, 6-(4-chlorophenyl)-5-(1,5-dimethyl-6-oxo-1,6-dihydropyridin-3-yl)-2-(6-methoxypyridin-3-yl)-3-methyl-5,6-dihydropyrrolo[3,4-c]pyrazol-4(2H)-one] showed a pIC50 of 7.30. In assay [2], it took 0.0496 µM to inhibit growth by half (GI50) and the “MV-4-11 TGI” value was found to be 0.065 µM. For the same molecule, in assay [3], the GI50 came to 0.104 µM and the “THP-1 TGI” value was 0.178 µM.
For `COc1ccc(-n2nc(C)c3c2C(c2ccc(Cl)cc2)N(c2cc(C)c(=O)n(C)c2)C3=O)cn1` (centres unmarked) [Example 20b, 6-(4-chlorophenyl)-5-(1,5-dimethyl-6-oxo-1,6-dihydropyridin-3-yl)-1-(6-methoxypyridin-3-yl)-3-methyl-5,6-dihydropyrrolo[3,4-c]pyrazol-4(1H)-one] the same measures were 7.32, 0.0386 µM, 0.0542 µM, 0.0931 µM and 0.156 µM.

As a reminder, the pIC50 is the IC50 on a negative log10 scale, so that one unit is a factor of ten. A low value points to a high IC50. What is called GI50 is the concentration giving 50% growth inhibition. A high value points to less potent growth inhibition.
